Experiments:
[1] = tested on: Klebsiella pneumoniae expressing VIM-1 (IHMA599644); type: cell-based; settings: with imipenem 1 μg/ml; 95% inhibition of bacterial growth
Summary of the method: (§1)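 Clinical strains were grown overnight at 35 °C on blood agar, adjusted to set OD600 in saline and diluted 1:100 into 1.1× CAMHB. Inhibitor was tested with and without imipenem at 1 μg/ml. After 22–24 h at 35 °C, absorbance was read to give synergistic concentration.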

[2] = tested on: Serratia marcescens expressing IMP-1 (CL5741); type: cell-based; settings: with imipenem 1 μg/ml; 95% inhibition of bacterial growth
Summary of the method: as §1

[3] = tested on: Pseudomonas aeruginosa PAO1 MB9798 (efflux+, IMP-1); settings: ratio MITC95 PA 9798/MITC95 PA 9799; imipenem at 2 μg/mL
Summary of the method: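 Isogenic PAO1 pair (efflux+ MB9798, efflux− MB9799, both IMP-1) tested by microbroth MIC with fixed imipenem and/or ceftazidime, usually at CLSI breakpoint, plus fixed class A/C inhibitor against AmpC. MBL inhibitor titrated; concentration restoring susceptibility recorded and fold difference between strains taken as efflux extent.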

[4] = tested on: Escherichia coli expressing NDM-1 (CLB30005, CLB30016); type: cell-based; settings: with imipenem 1 μg/ml; 95% inhibition of bacterial growth
Summary of the method: as §1

SMILES | Klebsiella pneumoniae (VIM-1) MITC95 [1] | Serratia marcescens (IMP-1) MITC95 [2] | Efflux ratio [3] | Escherichia coli (NDM-1) MITC95 [4]
NC(=O)c1csc(Nc2cccc(-c3ccc(S(=O)(=O)N[C@@H]4CCNC4)c(S(N)(=O)=O)c3-c3nn[nH]n3)c2)n1 [Example 471, (R)-2-((4′-(N-(pyrrolidin-3-yl)sulfamoyl)-3′-sulfamoyl-2′-(2H-tetrazol-5-yl)-[1,1′-biphenyl]-3-yl)amino)thiazole-4-carboxamide] | 3.125 µM |  |  | 
NC[C@H](CO)NS(=O)(=O)c1ccc(-c2cccc3[nH]nnc23)c(-c2nn[nH]n2)c1S(N)(=O)=O [Example 407, (R)-N^1-(1-amino-3-hydroxypropan-2-yl)-4-(1H-benzo[d][1,2,3]triazol-4-yl)-3-(2H-tetrazol-5-yl)benzene-1,2-disulfonamide] | 3.125 µM | 1.563 µM |  | 
NCC(CN)NS(=O)(=O)c1ccc(-c2cccc3ccc(N)nc23)c(-c2nn[nH]n2)c1S(N)(=O)=O [Example 430, 4-(2-aminoquinolin-8-yl)-N1-(1,3-diaminopropan-2-yl)-3-(2H-tetrazol-5-yl)benzene-1,2-disulfonamide] | 1.563 µM | 1.563 µM |  | 
NCCNS(=O)(=O)c1ccc(-c2cccnc2N)c(-c2nn[nH]n2)c1S(N)(=O)=O [Example 358, N1-(2-aminoethyl)-4-(2-aminopyridin-3-yl)-3-(2H-tetrazol-5-yl)benzene-1,2-disulfonamide] | 1.563 µM |  | 2.00 | 
NCCNS(=O)(=O)c1ccc(-c2cnc3cc[nH]c3c2)c(-c2nn[nH]n2)c1S(N)(=O)=O [Example 359, N1-(2-aminoethyl)-4-(1H-pyrrolo[3,2-b]pyridin-6-yl)-3-(2H-tetrazol-5-yl)benzene-1,2-disulfonamide] | 1.563 µM |  | 2.00 | 
NC[C@H](O)CNS(=O)(=O)c1ccc(-c2ccc3nccn3c2)c(-c2nn[nH]n2)c1S(N)(=O)=O [Example 418, (S)-N^1-(3-amino-2-hydroxypropyl)-4-(imidazo[1,2-a]pyridin-6-yl)-3-(2H-tetrazol-5-yl)benzene-1,2-disulfonamide] | 1.563 µM | 0.7813 µM |  | 
Nc1ccc(-c2ccc(S(=O)(=O)N[C@@H]3CCCNC3)c(S(N)(=O)=O)c2-c2nn[nH]n2)cn1 [Example 490, (R)-4-(6-aminopyridin-3-yl)-N1-(piperidin-3-yl)-3-(2H-tetrazol-5-yl)benzene-1,2-disulfonamide] | 3.125 µM | 1.563 µM |  | 
NCCNS(=O)(=O)c1ccc(-c2ccccc2NC(=O)CN)c(-c2nn[nH]n2)c1S(N)(=O)=O [Example 452, 2-Amino-N-(4′-(N-(2-aminoethyl)sulfamoyl)-3′-sulfamoyl-2′-(2H-tetrazol-5-yl)-[1,1′-biphenyl]-2-yl)acetamide] | 6.25 µM |  |  | 
NCCNS(=O)(=O)c1ccc(-c2ccnc(N)c2)c(-c2nn[nH]n2)c1S(N)(=O)=O [Example 400, N^1-(2-aminoethyl)-4-(2-aminopyridin-4-yl)-3-(2H-tetrazol-5-yl)benzene-1,2-disulfonamide] | 1.563 µM |  |  | 
C[C@H](CN)NS(=O)(=O)c1ccc(-c2cccc3c2nc(N)n3C)c(-c2nn[nH]n2)c1S(N)(=O)=O [Example 395, (R)-4-(2-amino-1-methyl-1H-benzo[d]imidazol-4-yl)-N^1-(1-aminopropan-2-yl)-3-(2H-tetrazol-5-yl)benzene-1,2-disulfonamide] | 1.563 µM | 1.563 µM |  | 
NC[C@H](N)CNS(=O)(=O)c1ccc(-c2ccc(N)nc2)c(-c2nn[nH]n2)c1S(N)(=O)=O [Example 415, (S)-4-(6-aminopyridin-3-yl)-N^1-(2,3-diaminopropyl)-3-(2H-tetrazol-5-yl)benzene-1,2-disulfonamide] | 3.125 µM |  |  | 
Nc1nc(-c2cccc(-c3ccc(S(=O)(=O)N[C@H]4CCNC4)c(S(N)(=O)=O)c3-c3nn[nH]n3)c2)c[nH]1 [Example 294, (S)-3′-(2-amino-1H-imidazol-4-yl)-N4-(pyrrolidin-3-yl)-2-(2H-tetrazol-5-yl)-[1,1′-biphenyl]-3,4-disulfonamide] | 1.563 µM |  | 2.00 | 
Nc1ncccc1-c1ccc(S(=O)(=O)NC[C@@H]2CNCCN2)c(S(N)(=O)=O)c1-c1nn[nH]n1 [Example 313, (S)-4-(2-aminopyridin-3-yl)-N1-(piperazin-2-ylmethyl)-3-(2H-tetrazol-5-yl)benzene-1,2-disulfonamide] | 3.125 µM |  | 2.00 | 
NCC(CN)NS(=O)(=O)c1ccc(-c2ccc(N)nc2)c(-c2nn[nH]n2)c1S(N)(=O)=O [Example 404, 4-(6-aminopyridin-3-yl)-N^1-(1,3-diaminopropan-2-yl)-3-(2H-tetrazol-5-yl)benzene-1,2-disulfonamide] | 1.172 µM |  |  | 
NCC(CN)NS(=O)(=O)c1ccc(-c2ccnc(N)c2)c(-c2nn[nH]n2)c1S(N)(=O)=O [Example 405, 4-(2-aminopyridin-4-yl)-N^1-(1,3-diaminopropan-2-yl)-3-(2H-tetrazol-5-yl)benzene-1,2-disulfonamide] | 25 µM |  |  | 
Nc1nc(-c2cccc(-c3ccc(S(=O)(=O)N[C@H]4CNC[C@H]4N)c(S(N)(=O)=O)c3-c3nn[nH]n3)c2)c[nH]1 [Example 327, 3′-(2-amino-1H-imidazol-4-yl)-N4-((3S,4R)-4-aminopyrrolidin-3-yl)-2-(2H-tetrazol-5-yl)[1,1′-biphenyl]-3,4-disulfonamide] | 1.563 µM |  | 2.00 | 
Nc1ccc(-c2ccc(S(=O)(=O)NC[C@@H]3CCCN3)c(S(N)(=O)=O)c2-c2nn[nH]n2)cn1 [Example 488, (S)-4-(6-aminopyridin-3-yl)-N1-(pyrrolidin-2-ylmethyl)-3-(2H-tetrazol-5-yl)benzene-1,2-disulfonamide] | 1.563 µM |  |  | 
NCc1nc2c(-c3ccc(S(=O)(=O)NC[C@@H](O)CN)c(S(N)(=O)=O)c3-c3nn[nH]n3)cccc2s1 [Example 306, (S)—N1-(3-amino-2-hydroxypropyl)-4-(2-(aminomethyl)benzo[d]thiazol-4-yl)-(2H-tetrazol-5-yl)benzene-1,2-disulfonamide] |  | 0.7813 µM | 1.00 | 0.7813 µM
NC[C@H](N)CNS(=O)(=O)c1ccc(-c2cccc3[nH]c(N)nc23)c(-c2nn[nH]n2)c1S(N)(=O)=O [Example 370, (S)-4-(2-amino-1H-benzo[d]imidazol-4-yl)-N1-(2,3-diaminopropyl)-3-(2H-tetrazol-5-yl)benzene-1,2-disulfonamide] | 1.563 µM |  | 1.00 | 
Cn1c(N)nc2c(-c3ccc(S(=O)(=O)NC[C@H](O)CN)c(S(N)(=O)=O)c3-c3nn[nH]n3)cccc21 [Example 302, (R)-4-(2-amino-1-methyl-1H-benzo[d]imidazol-4-yl)-N1-(3-amino-2-hydroxypropyl)-3-(2H-tetrazol-5-yl)benzene-1,2-disulfonamide] |  | 0.7813 µM | 1.00 | 0.7813 µM
NCc1nc2cc(-c3ccc(S(=O)(=O)N[C@@H]4CCNC4)c(S(N)(=O)=O)c3-c3nn[nH]n3)ccc2s1 [Example 275, (R)-4-(2-(aminomethyl)benzo[d]thiazol-5-yl)-N^1-(pyrrolidin-3-yl)-3-(2H-tetrazol-5-yl)benzene-1,2-disulfonamide] |  | 0.7813 µM | 1.00 | 0.7813 µM
NC[C@H](N)CNS(=O)(=O)c1ccc(-c2cnc(N)s2)c(-c2nn[nH]n2)c1S(N)(=O)=O [Example 372, (S)-4-(2-aminothiazol-5-yl)-N1-(2,3-diaminopropyl)-3-(2H-tetrazol-5-yl)benzene-1,2-disulfonamide] |  | 1.563 µM | 2.00 | 1.563 µM
Nc1nc2c(-c3ccc(S(=O)(=O)NC[C@]4(N)CCNC4)c(S(N)(=O)=O)c3-c3nn[nH]n3)cccc2s1 [Example 366, (S)-4-(2-aminobenzo[d]thiazol-4-yl)-N^1-((3-aminopyrrolidin-3-yl)methyl)-3-(2H-tetrazol-5-yl)benzene-1,2-disulfonamide] |  | 1.563 µM | 1.00 | 0.7813 µM
NS(=O)(=O)c1c(S(=O)(=O)N[C@@H]2CCNC2)ccc(-c2cccc3ncccc23)c1-c1nn[nH]n1 [Example 287, (R)-N1-(pyrrolidin-3-yl)-4-(quinolin-5-yl)-3-(2H-tetrazol-5-yl)benzene-1,2-disulfonamide] |  | 1.563 µM | 1.00 | 1.563 µM
